Source: PubChem BioAssay AID179 (DTP/NCI, 2004)
Calls of active or inactive are those of the source.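 The calls were made as follows: active = compounds giving half or more protection of infected cells from virus-caused growth loss, again on retest; inactive = the rest.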 Where a SMILES comes first, the peptide text is derived from it. Bridges are numbered along the chain shown (N, C = ends). Roman numbers before positions name the chains, in order.

System: CEM cells HIV-1 protection, formazan growth assay
Test: NCI AIDS Antiviral Assay
Details: for IC50: measured here: growth of uninfected CEM cells
Method in brief: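 Five concentrations of each compound were applied to infected and uninfected human CEM cells. Protection from HIV-1 was judged from growth measured with a soluble formazan assay.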

Row | SMILES | outcome | EC50 | IC50
1 | CCN(CC)c1ccc2cc(S(=O)(=O)c3ccccc3)c(=O)oc2c1 | inactive | – | –
2 | C(#CCN1CCCCCC1)CN1CCCCCC1 | – | 182 µM | > 200 µM
3 | S=C(SSSSC(=S)N1CCCCC1)N1CCCCC1 | – | > 10.5 µM | 2.14 µM
4 | O=[N+]([O-])c1ccc(O)c(C=NCC2CCCN3CCCCC23)c1 (centres undefined) | – | > 200 µM | 39.8 µM
5 | CCO/N=C(/CC)c1ccc(Br)s1 | – | > 200 µM | 102 µM
6 | COC(=O)c1cc(Cc2cc(C(c3cc(Cc4cc(Cl)c(O)c(C(=O)OC)c4)c(O)c(C(=O)OC)c3)C(Cl)(Cl)Cl)cc(C(=O)OC)c2O)cc(Cl)c1O | – | > 200 µM | > 200 µM
7 | CCOC(=O)C(Cc1ccc(O)cc1)NC(=O)C(N)CSSCC(N)C(=O)NC(Cc1ccc(O)cc1)C(=O)OCC (stereo not drawn) (I: H-Cys-Tyr-OEt / II: H-Cys-Tyr-OEt; disulfide I:1-II:1; configuration not given here) | – | > 200 µM | > 200 µM
8 | CCOC(=O)C1(C(=O)OCC)OC(=O)NC2=C1CCCC2 | – | > 832 µM | 145 µM
9 | COc1ccc(-c2cc(=O)c3c(O)c(OC)c(OC)c(OC)c3o2)cc1 | – | > 200 µM | 55 µM
10 | O=C(c1ccccc1)c1c(-c2ccccc2)sc2nc3ccccc3nc12 | – | > 27.5 µM | > 27.5 µM
11 | O=C1c2ccc(O)cc2OC(c2ccc(O)c(O)c2)C1O (centres undefined) | – | > 200 µM | 93.3 µM
12 | Cc1c(N=Nc2ccc(Br)cc2)c(=O)n(-c2ccccc2)c(=O)n1-c1nc2ccccc2[nH]1 | – | > 89.1 µM | 85.1 µM
13 | COc1ccc(NC(=O)C(=O)c2c(O)c3ccc(O)cc3oc2=O)c([N+](=O)[O-])c1 | – | > 447 µM | 229 µM
14 | CC(C)CCCC(C)C1CCC2[C@@H]3CCC4C[C@@H](CCCO)CC[C@]4(C)C3CC[C@]12C (some centres undefined) | – | > 4.37 µM | > 4.37 µM
15 | COc1ccc(C2=Nn3c(nc4sc5c(c4c3=O)CCCC5)SC2)cc1 | – | > 200 µM | > 200 µM
16 | OC1CCCC1C(O)(C(F)(F)F)C(F)(F)F (centres undefined) | inactive | – | –
17 | COc1cc(Br)c(-c2coc3c(OC)c(OC)ccc3c2=O)cc1OC | – | > 50.1 µM | > 50.1 µM
18 | O=C(N=Nc1ccccc1Cl)NNc1ccccc1Cl | – | > 200 µM | 31.6 µM
19 | O=C1CCCc2cc3c(cc21)CC1(C3)Cc2ccc3c(c2C1)C(=O)CCC3 (centres undefined) | – | > 200 µM | 16.2 µM
20 | C=CCC1(CC(=O)O)CC=CCC12OCCO2 (centres undefined) | – | > 200 µM | > 200 µM
21 | COCCCC(NC(=O)C(CC(C)C)NC(=O)OCc1ccc(OC)cc1)C(=O)OC (centres undefined) | – | > 200 µM | 33.1 µM
22 | CC1OC(n2cc(C(F)(F)F)c(=O)[nH]c2=O)C=CC1O (centres undefined) | – | > 851 µM | 148 µM
23 | O=C1N[C@@H]2c3c(Br)sc(Br)c3C(=O)[C@@H]2O1 | – | > 200 µM | 0.759 µM

Row | SMILES | outcome | EC50 | IC50
24 | CCOC(=O)c1[nH]n(-c2ccccc2)c(=O)c1/C=N/C(=S)N=Nc1c(O)[nH]c2ccccc12 | – | > 200 µM | > 100 µM
25 | CCOC(=O)c1nc2ccccc2nc1Oc1cc(OC)c(OC)c(OC)c1 | – | > 100 µM | > 100 µM
26 | O=C(Nc1ccc(C(F)(F)F)cc1[N+](=O)[O-])C(=O)C(C(=O)c1ccc2ccccc2c1)C1OC(=O)c2ccccc21 (centres undefined) | – | > 64.6 µM | 33.9 µM
27 | CCCC(=O)OCC(COC(=O)CCC)OC(=O)CCC | – | > 200 µM | > 200 µM
28 | CC(C)[Si](OC1=C(C(=O)N(C)c2cccc(Cl)c2)CCCC1)(C(C)C)C(C)C | – | > 200 µM | 9.77 µM
29 | COc1ccc(/C=C/C(=O)c2sc(NC(=S)NC(=O)c3ccccc3F)nc2C)cc1OC | – | > 74.1 µM | > 74.1 µM
30 | CC1(C)COC(c2cccc(C(O)c3ccc(Cl)cc3)c2)=N1 (centres undefined) | – | > 200 µM | 38.9 µM
31 | O=C(CCC(=O)Nc1ccc(C2=NCCN2)cc1)Nc1ccc(C2=NCCN2)cc1 | – | 95.5 µM | 141 µM
32 | Nc1cccc(P(N)(N)=O)c1 | – | > 200 µM | > 200 µM
33 | CC1(C)C(=O)CCC(=O)C(C)(C)C2=CC=C(O2)C(C)(C)C(=O)CCC(=O)C(C)(C)C2=CC=C1O2 | inactive | – | –
34 | CCN(CC)CCOc1ccc(/C(C#N)=C/c2cccc3ccccc23)cc1 | – | > 200 µM | 1.78 µM
35 | Oc1ccc(Br)cc1C=Nc1c(NC2CCCCC2)oc2ccc(Br)cc12 | inactive | – | –
36 | CC(C)=CCC1(O)C(=O)c2ccccc2C1(O)C(=O)O (centres undefined) | – | > 200 µM | > 200 µM
37 | O=C(O)CCCc1ccc([As](=O)(O)O)cc1[N+](=O)[O-] | – | > 200 µM | > 200 µM
38 | NC(=O)CNCCS(=O)(=O)O | – | > 200 µM | > 200 µM
39 | Nc1nc(-c2ccc(Cl)cc2)nc2sc3c(c12)CCCCC3 | – | > 30.2 µM | > 30.2 µM
40 | N=C(N)CCNC(=O)C1CCC(N)=N1 (centres undefined) | – | > 851 µM | 17 µM
41 | NC(CCCCNCc1ccccc1O)C(=O)O (centres undefined) | – | > 178 µM | > 178 µM
42 | Cc1n[nH]c(=S)n1NC=O | – | > 200 µM | > 200 µM
43 | COc1cc(C[C@H]2C(=O)OC[C@@H]2Cc2ccc(OC)c(OC)c2)cc(OC)c1 | – | > 200 µM | 91.2 µM
44 | Cc1nn2c(C(=O)O)nnc2s1 | – | > 200 µM | > 200 µM
45 | CC(=O)Oc1ccc[nH]c1=O | – | > 200 µM | 58.9 µM
46 | CC(C)CC(C(N)=O)C(=O)NC(Cc1ccccc1)NC(=O)CNC(=O)OC(C)(C)C (centres undefined) | – | > 25.1 µM | > 25.1 µM

Row | SMILES | outcome | EC50 | IC50
47 | O=C(c1ccc(Cl)cc1)N(C(=S)N1CCN(c2ccccc2)CC1)c1ccccc1 | – | > 12 µM | 11.2 µM
48 | O=C1N2CCN=C2c2ccccc2C1(O)c1ccccc1 (centres undefined) | – | > 200 µM | > 200 µM
49 | N#CC(C#N)=Cc1cccc(Cl)c1 | – | > 117 µM | 22.4 µM
50 | CCOc1ccc(NC(=O)/C(CC(=O)c2sc(Nc3ccc(C)cc3)nc2C)=N\NC(N)=S)cc1 | – | > 200 µM | > 200 µM
51 | Cc1nnnn1[C@H]1C(C#N)CC2[C@@H]3CCC4=Cc5nnnn5CC[C@]4(C)C3CC[C@@]21C (some centres undefined) | – | > 85.1 µM | > 85.1 µM
52 | CC1NOC(=O)C1N=Nc1ccccc1Cl (centres undefined) | – | > 151 µM | 70.8 µM
53 | C/C(CC(=O)Nc1ccc(NC(=O)C/C(C)=N\NC(N)=O)cc1)=N/NC(N)=O | – | > 240 µM | > 240 µM
54 | C1=CC(=[N+]2N=C(c3ccccc3)CC2c2ccccc2)C=CC1=C1SC(c2ccccc2)(c2ccccc2)c2ccccc21 (centres undefined) | – | > 200 µM | > 200 µM
55 | COc1ccc(OC)c(/C=C/c2ccc3ccccc3n2)c1 | – | > 24.5 µM | > 24.5 µM
56 | COC(=O)C(C)(C)C(OP(=S)(OC)OC)=C(C)C | – | > 200 µM | > 200 µM
57 | N=c1o[n-][n+](-c2ccccc2)c1-c1ccccc1 | inactive | – | –
58 | Cc1nnc(NS(=O)(=O)c2ccc(N=NC3SC(=S)NC3=O)cc2)s1 (centres undefined) | – | > 200 µM | > 200 µM
59 | N=C1/C(=C/c2ccco2)C(=O)N=C2SC=NN12 | – | > 200 µM | > 200 µM
60 | O=C(CC(=O)c1ccccc1NC1=Cc2ccccc2C(=O)C1=O)C(=O)NC1=C(Cl)C(=O)c2ccccc2C1=O | – | > 18.2 µM | 3.24 µM
61 | S=c1nc(C(c2ccccc2)c2ccccc2)[nH][nH]1 | – | > 135 µM | > 135 µM
62 | O=S(O)c1cc(Cl)c(O)c(Cl)c1 | inactive | – | –
63 | CC(C)(CO)CNc1nc(N)nc(Cl)c1/C=N/O | – | > 200 µM | 5.5 µM
64 | O=C(c1ccccc1)C1C[C@H]2CO[C@H](c3ccccc3)N2C1=O (some centres undefined) | – | > 200 µM | 69.2 µM
65 | O=c1[nH]c(=O)n([C@H]2C[C@@H](CO)[C@@H](O)C2)cc1I | – | > 708 µM | > 708 µM
66 | O=c1n(-c2ccccc2)c(=O)n2n1C1C=CC2C2C(C1)C2(Cl)Cl (centres undefined) | inactive | – | –
67 | CC(=O)Nc1ccc(/C=C/C(=O)c2sc(-n3nc(-c4ccccc4)cc3-c3ccccc3)nc2C)cc1 | – | > 20 µM | 17 µM
68 | Cc1cn(C2OC(C)(CO)C(O)C2O)c(=O)[nH]c1=O (centres undefined) | – | > 912 µM | > 912 µM
69 | Cc1cc2c(c3[nH]c4ccccc4c13)C(=O)c1ccccc1C2=O | – | > 3.39 µM | > 3.39 µM

Row | SMILES | outcome | EC50 | IC50
70 | Cc1cc(=O)n(/C=C/C(=O)O)c2ccccc12 | – | > 200 µM | > 200 µM
71 | O=C1/C(=N\[O-])C(S(=O)(=O)[O-])=Cc2cc(S(=O)(=O)[O-])cc(O)c21.O=C1/C(=N\[O-])C(S(=O)(=O)[O-])=Cc2cc(S(=O)(=O)[O-])cc(O)c21.[Cu+2] | – | > 200 µM | 123 µM
72 | Cc1cc2ncc3c(=O)n(NS(=O)(=O)c4ccc(N)cc4)ccc3n2n1 | – | > 200 µM | > 200 µM
73 | O=C(/C=C/c1ccc(O)cc1)c1ccc2c(c1)OCO2 | – | > 200 µM | 33.1 µM
74 | CC(C)c1cccc(C(C)C)c1NC(=O)CCC(=O)NN | – | > 324 µM | > 324 µM
75 | OCCN1c2ccccc2Sc2ccccc21 | – | > 200 µM | 105 µM
76 | NC(CO)(CO)CO | – | > 200 µM | > 200 µM
77 | Cc1cccc(Nc2nc(N)nc(N)c2N=O)c1 | – | > 200 µM | 20.9 µM
78 | CCN(CC)CCCC(C)Nc1cc(-c2ccccc2)nc2cc(OC)ccc12 (centres undefined) | – | > 363 µM | 0.741 µM
79 | CC(C)C1=CC23CCC4C(C)(C(=O)O)CCCC4(C)C2CC1C1C(=O)N(c2ccc(C(=O)O)cc2)C(=O)C13 (centres undefined) | – | > 45.7 µM | > 45.7 µM
80 | CCC(=O)NC(OCC1(CC)COC1)(C(F)(F)F)C(F)(F)F | – | > 200 µM | > 200 µM
81 | Cc1nnc(N)nc1/C=C\c1ccc(N(C)C)cc1 | – | > 200 µM | 3.47 µM
82 | CN1C(=O)N/C(=C\c2ccc(S(=O)(=O)N/N=C\C(O)C(O)C(O)C(O)CO)cc2)C1=O (centres undefined) | – | > 200 µM | > 200 µM
83 | O=c1[nH]c2ccc([N+](=O)[O-])cc2nc1/C(=N/Nc1ccccc1)C(O)c1ccco1 (centres undefined) | – | > 437 µM | 275 µM
84 | CSc1nnc(CF)c(=O)[nH]1 | – | > 200 µM | > 200 µM
85 | O=C(O)c1cc(=O)c2[nH]c3ccccc3c2s1 | inactive | – | –
86 | Cc1csc(=S)n1OC(=O)NC1CCCCC1 | – | > 912 µM | 45.7 µM
87 | COC(=O)/C(C=O)=C/Sc1ccccc1 | inactive | – | –
88 | C(=Nc1cccnc1)c1ccc2ccccc2n1 | – | > 81.3 µM | 44.7 µM
89 | Cc1ccc(N=C2S/C(=C3/CCC=C3N3CCOCC3)N(c3ccc(Cl)cc3)C2=Nc2ccc(C)cc2)cc1 | – | > 200 µM | > 200 µM
